Entries after “also recorded” stand apart in the source; their conditions may differ.
How the values were obtained:
[1] = tested on: Canton S (CS) control larvae
[2] = tested on: Canton S (CS) control larvae; assay: Muscle area measurement, control larvae cultured on 4-AP
tetrodotoxin toxicity = details: in vivo; cited from earlier work
[3] = tested on: Canton S (CS) control larvae; remark: listed apart in the source
[4] = tested on: smn^x7/smn^x7 mutant larvae; assay: Larval locomotion assay, smn mutant larvae; format: in vivo, Drosophila
MS patients = details: cited from earlier work
[5] = tested on: other sodium, calcium, and potassium conductances; details: at concentration of 1 mM; cited from earlier work
[6] = tested on: smn^x7/smn^x7 mutant larvae; assay: NMJ electrophysiology (eEPSP), smn mutant larvae; format: in vivo, Drosophila
[7] = tested on: smn^x7/smn^x7 mutant larvae; assay: Muscle area measurement, smn mutant larvae cultured on 4-AP
wild-type larvae = assay: Titration of 4-AP in larval media for tolerability
[8] = tested on: Canton S (CS) control larvae; remark: listed apart in the source
Drosophila smn mutants = assay: Rescue of Drosophila smn mutant phenotypes by K+ channel antagonists; details: treatment with K+ channel antagonist; 4-(dimethylamino)pyridine data not shown
[9] = tested on: smn^x7/smn^x7 mutant larvae; assay: Spontaneous motor rhythm recording, smn mutant larvae; format: in vivo, Drosophila
Shaker channels = details: at concentration of 1 mM; cited from earlier work
[10] = tested on: canine hereditary motor neuron disease; details: canine hereditary motor neuron disease (Pinter et al., 1997); cited from earlier work
[11] = CS control larvae treated with 2 mM 4-AP, ± SEM
[12] = control animals, 2 mM 4-AP, P<0.01
[13] = smn mutants, 2 mM 4-AP, compared with 4-AP treated controls
[14] = smn^x7/smn^x7 larvae treated with 2 mM 4-AP, ± SEM

## Nc1ccncc1 [4-AP, 4-aminopyridine]
[1]; [11]
  eEPSP amplitude: 26.67 ± 2.91 mV
[1]; control animals, 2 mM 4-AP, P<0.001
  reduction of NMJ eEPSP amplitudes: 21%
[2]; CS control larvae treated with 2 mM 4-AP throughout larval period, ± SEM
  Muscle 6 area: 38.08 ± 3.49 ×10^3 × μm^2
[2]; control / wild-type animals, 2 mM 4-AP
  effect on muscle size: no effect; also recorded: does not alter; also recorded: did not affect
Tetrodotoxin toxicity
  effect on tetrodotoxin toxicity: reverse tetrodotoxin toxicity
[3]; [11]
  Locomotion: 3.06 ± 0.40 cm/min
[3]; [12]
  reduction of larval locomotion: 35%
[4]; smn mutants grown on 2 mM 4-AP media, P<0.05
  increase of locomotion: 55%
[4]; [13]
  effect on locomotion: corrects; also recorded: significantly increased
[4]; [14]
  Locomotion: 2.65 ± 0.10 cm/min
MS patients; 17 temperature-sensitive MS patients, 7.5 to 52.5 mg in one to three daily doses, 1 to 5 days, thirteen of 17
  patients with clinically important motor and visual improvements: 76%
MS patients; 17 temperature-sensitive MS patients, 7.5 to 52.5 mg
  side effects: No serious side effects
MS patients; average 8.53-hour treatment-observation period
  mean duration of improvements for two consecutive doses: 7.07 h
MS patients; long-term study (32 months)
  initial responders with long-term benefits: 80-90%
MS patients; two consecutive doses, average 8.53-hour period
  duration of improvements as share of treatment-observation period: 83%
[5]
  effect on other sodium, calcium, and potassium conductances: without significant effect
[6]; smn mutants treated with 2 mM 4-AP, P<0.001
  reduction of increased NMJ EPSP amplitude: 27%
[6]; [13]
  effect on NMJ neurotransmitter release / eEPSP amplitude: corrects; also recorded: fully corrected
[6]; [14]
  eEPSP amplitude: 32.40 ± 2.48 mV
[7]; smn mutants grown on 2 mM 4-AP media, P<0.001
  increase of muscle surface area compared to untreated smn mutants: 66%
[7]; smn mutants, 2 mM 4-AP
  effect on muscle size: increases; also recorded: significantly increased
[7]; smn^x7/smn^x7 larvae treated with 2 mM 4-AP throughout larval period, ± SEM
  Muscle 6 area: 29.60 ± 3.09 ×10^3 × μm^2
wild-type larvae; added to larval media, wild-type larvae
  maximum dosage tolerated without lethality: 2 mM
wild-type larvae; control animals, 2 mM throughout larval period
  toxicity at maximum tolerated dose: mild systemic toxicity
[8]; [11]
  Inter-spike interval: 68.89 ± 4.23 ms
[8]; control animals, 2 mM 4-AP
  effect on motor rhythm: inhibits
[8]; [12]
  decrease of rhythmic motor activity: 40%
Drosophila smn mutants
  effect on Drosophila smn mutant phenotypes: positively benefitted; also recorded: rescued
[9]; smn mutants grown on 2 mM 4-AP media, p<0.001
  remaining increase in inter-spike interval above controls treated with 4-AP: 31%
[9]; smn mutants, 2 mM 4-AP
  effect on defects in motor rhythm: substantially improved; also recorded: substantially corrects; also recorded: fully corrected
[9]; [14]
  Inter-spike interval: 89.98 ± 4.98 ms
Shaker channels
  inhibition of Shaker channels: selectively and reversibly inhibits
[10]
  effect on muscle twitch tension: can improve

## CN(C)c1ccncc1 [4-(dimethylamino) pyridine]
Drosophila smn mutants
  effect on Drosophila smn mutant phenotypes: rescued

Source: patent US20150064234A1, “4-AMINOPYRIDINE AS A THERAPEUTIC AGENT FOR SPINAL MUSCULAR ATROPHY” (THE TRUSTEES OF COLUMBIA UNIVERSITY IN THE CITY OF NEW YORK, priority 2012, published 2015)
